Reference: patent publication US20150105252A1, “SUBSTITUTED PYRAZOLES AS HERBICIDES” (E I DU PONT DE NEMOURS AND COMPANY, priority 2013, published 2015)

Experiments:
[1] = test system: foxtail, giant; test: Test A preemergence; type: in vivo, Setaria faberii; conditions: preemergence
Summary of the method: (§1)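 Growth medium: loam soil blended with sand. Preemergence treatment used a directed soil spray right after planting; postemergence treatment targeted seedlings at one to two leaves (2–10 cm height). Response was judged by eye relative to untreated plants about 10 days later on a 0–100 control scale.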

[2] = test system: morningglory; test: Test A preemergence; type: in vivo, Ipomoea spp.; conditions: preemergence
Summary of the method: as §1

[3] = test system: velvetleaf; test: Test A preemergence; type: in vivo, Abutilon theophrasti; conditions: preemergence
Summary of the method: as §1

[4] = test system: corn; test: Test A preemergence; type: in vivo, Zea mays; conditions: preemergence
Summary of the method: as §1

[5] = test system: crabgrass, large; test: Test A postemergence; type: in vivo, Digitaria sanguinalis
Summary of the method: as §1

[6] = test system: pigweed; test: Test A postemergence; type: in vivo, Amaranthus retroflexus
Summary of the method: as §1

[7] = test system: wheat; test: Test A postemergence; type: in vivo, Triticum aestivum
Summary of the method: as §1

[8] = test system: sedge, umbrella; test: Test B flood; type: in vivo, Cyperus difformis; conditions: 250 g ai/ha, visual rating on 0 to 100 scale (0 no effect, 100 complete control), 13 to 15 days
Summary of the method: (§2)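 At two leaves, seedlings received the test compound via the paddy water, pots having been flooded 3 cm over the soil surface and kept so. Greenhouse-held for 13 to 15 days, then judged by eye against controls on a scale running 0 (no effect) to 100 (complete control).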

[9] = test system: ducksalad; test: Test B flood; type: in vivo, Heteranthera limosa; conditions: 250 g ai/ha, visual rating on 0 to 100 scale (0 no effect, 100 complete control), 13 to 15 days
Summary of the method: as §2

[10] = test system: wheat; test: Test C preemergence; type: in vivo, Triticum aestivum; conditions: for Plant response rating (scale of 0 to 100), Wheat: Preemergence, 250 g ai/ha; for Wheat plant response rating / Plant response rating, Wheat: preemergence, 13 to 15 days; for Wheat plant response rating: scale 0 to 100 (0 no effect, 100 complete control); for Plant response rating, Wheat: 125 g ai/ha, scale 0 to 100, 0 = no effect, 100 = complete control
Summary of the method: (§3)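 Pre- and postemergence greenhouse screen; vehicle was a non-phytotoxic solvent mix with surfactant. Preemergence: treatment applied right after sowing into loam and sand. Postemergence: treated at 1–4 leaves. Visual rating at 13–15 days, 100 = complete control.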

[11] = test system: galium; test: Test C preemergence; type: in vivo, Galium aparine; conditions: for Plant response rating (scale of 0 to 100), Galium: Preemergence, 250 g ai/ha; for Galium plant response rating / Plant response rating, Galium: preemergence, 13 to 15 days; for Galium plant response rating: scale 0 to 100 (0 no effect, 100 complete control); for Plant response rating, Galium: 125 g ai/ha, scale 0 to 100, 0 = no effect, 100 = complete control
Summary of the method: as §3

[12] = test system: corn; test: Test C preemergence; type: in vivo, Zea mays; conditions: for Plant response rating (scale of 0 to 100), Corn: Preemergence, 250 g ai/ha; for Corn plant response rating / Plant response rating, Corn: preemergence, 13 to 15 days; for Corn plant response rating: scale 0 to 100 (0 no effect, 100 complete control); for Plant response rating, Corn: 125 g ai/ha, scale 0 to 100, 0 = no effect, 100 = complete control
Summary of the method: as §3

[13] = test system: foxtail, giant; test: Test C preemergence; type: in vivo, Setaria faberii; conditions: for Plant response rating (scale of 0 to 100), Foxtail, Giant: Preemergence, 250 g ai/ha; for Foxtail, Giant plant response rating / Plant response rating, Foxtail, Giant: preemergence, 13 to 15 days; for Foxtail, Giant plant response rating: scale 0 to 100 (0 no effect, 100 complete control); for Plant response rating, Foxtail, Giant: 125 g ai/ha, scale 0 to 100, 0 = no effect, 100 = complete control
Summary of the method: as §3

[14] = test system: nutsedge, yellow; test: Test C preemergence; type: in vivo, Cyperus esculentus; conditions: for Plant response rating (scale of 0 to 100), Nutsedge, Yellow: Preemergence, 250 g ai/ha; for Nutsedge, Yellow plant response rating / Plant response rating, Nutsedge, Yellow: preemergence, 13 to 15 days; for Nutsedge, Yellow plant response rating: scale 0 to 100 (0 no effect, 100 complete control); for Plant response rating, Nutsedge, Yellow: 125 g ai/ha, scale 0 to 100, 0 = no effect, 100 = complete control
Summary of the method: as §3

[15] = test system: oilseed rape; test: Test C preemergence; type: in vivo, Brassica napus; conditions: for Plant response rating (scale of 0 to 100), Oilseed Rape: Preemergence, 250 g ai/ha; for Oilseed Rape plant response rating / Plant response rating, Oilseed Rape: preemergence, 13 to 15 days; for Oilseed Rape plant response rating: scale 0 to 100 (0 no effect, 100 complete control); for Plant response rating, Oilseed Rape: 125 g ai/ha, scale 0 to 100, 0 = no effect, 100 = complete control
Summary of the method: as §3

[16] = 125 g ai/ha, visual injury, 0 to 100 scale, approx. 10 days
[17] = 500 g ai/ha, visual injury after approx. 10 days, 0 to 100 scale (0 no effect, 100 complete control)
[18] = Postemergence, 500 g ai/ha, 0 to 100 scale (0 no effect, 100 complete control)
[19] = postemergence, 125 g ai/ha, about 10 days, visual rating on 0 to 100 scale (0 no effect, 100 complete control)

SMILES: CCCc1cc(C(=O)NCC)nn1Cc1cc(C(F)(F)F)nn1C [Compound 129]
- Foxtail, Giant plant response rating [1, 16]: 100
- Foxtail, Giant plant response rating [1, 17]: 100
- Morningglory plant response rating [2, 16]: 100
- Morningglory plant response rating [2, 17]: 100
- Velvetleaf plant response rating [3, 16]: 100
- Velvetleaf plant response rating [3, 17]: 100
- Corn plant response rating [4, 16]: 10
- Corn plant response rating [4, 17]: 30
- Crabgrass, Large plant response rating [5, 18]: 90
- Crabgrass, Large plant response rating [5, 19]: 80
- Pigweed plant response rating [6, 18]: 100
- Pigweed plant response rating [6, 19]: 100
- Wheat plant response rating [7, 18]: 70
- Wheat plant response rating [7, 19]: 50
- Plant response rating, Sedge, Umbrella [8]: 95
- Plant response rating, Ducksalad [9]: 95
- Plant response rating (scale of 0 to 100), Wheat [10]: 90
- Wheat plant response rating ([10]; 31 g ai/ha, visual rating): 0
- Wheat plant response rating ([10]; 62 g ai/ha): 35
- Plant response rating, Wheat [10]: 85
- Plant response rating (scale of 0 to 100), Galium [11]: 100
- Galium plant response rating ([11]; 31 g ai/ha, visual rating): 100
- Galium plant response rating ([11]; 62 g ai/ha): 100
- Plant response rating, Galium [11]: 95
- Plant response rating (scale of 0 to 100), Corn [12]: 65
- Corn plant response rating ([12]; 31 g ai/ha, visual rating): 0
- Corn plant response rating ([12]; 62 g ai/ha): 15
- Plant response rating, Corn [12]: 55
- Plant response rating (scale of 0 to 100), Foxtail, Giant [13]: 100
- Foxtail, Giant plant response rating ([13]; 31 g ai/ha, visual rating): 100
- Foxtail, Giant plant response rating ([13]; 62 g ai/ha): 100
- Plant response rating, Foxtail, Giant [13]: 100
- Plant response rating (scale of 0 to 100), Nutsedge, Yellow [14]: 75
- Nutsedge, Yellow plant response rating ([14]; 31 g ai/ha, visual rating): 5
- Nutsedge, Yellow plant response rating ([14]; 62 g ai/ha): 25
- Plant response rating, Nutsedge, Yellow [14]: 60
- Plant response rating (scale of 0 to 100), Oilseed Rape [15]: 100
- Oilseed Rape plant response rating ([15]; 31 g ai/ha, visual rating): 95
- Oilseed Rape plant response rating ([15]; 62 g ai/ha): 95
- Plant response rating, Oilseed Rape [15]: 100

SMILES: CCNC(=O)c1cc(CC)n(Cc2ccnc(OC(F)F)c2)n1 [Compound 130]
- Foxtail, Giant plant response rating [1, 16]: 100
- Foxtail, Giant plant response rating [1, 17]: 100
- Morningglory plant response rating [2, 16]: 100
- Morningglory plant response rating [2, 17]: 100
- Velvetleaf plant response rating [3, 16]: 70
- Velvetleaf plant response rating [3, 17]: 100
- Corn plant response rating [4, 16]: 0
- Corn plant response rating [4, 17]: 90
- Crabgrass, Large plant response rating [5, 18]: 90
- Crabgrass, Large plant response rating [5, 19]: 70
- Pigweed plant response rating [6, 18]: 100
- Pigweed plant response rating [6, 19]: 100
- Wheat plant response rating [7, 18]: 90
- Wheat plant response rating [7, 19]: 20
- Plant response rating, Sedge, Umbrella [8]: 90
- Plant response rating, Ducksalad [9]: 90
- Plant response rating (scale of 0 to 100), Wheat [10]: 95
- Wheat plant response rating ([10]; 31 g ai/ha, visual rating): 0
- Wheat plant response rating ([10]; 62 g ai/ha): 35
- Plant response rating, Wheat [10]: 40
- Plant response rating (scale of 0 to 100), Galium [11]: 100
- Galium plant response rating ([11]; 31 g ai/ha, visual rating): 75
- Galium plant response rating ([11]; 62 g ai/ha): 85
- Plant response rating, Galium [11]: 98
- Plant response rating (scale of 0 to 100), Corn [12]: 85
- Corn plant response rating ([12]; 31 g ai/ha, visual rating): 5
- Corn plant response rating ([12]; 62 g ai/ha): 30
- Plant response rating, Corn [12]: 45
- Plant response rating (scale of 0 to 100), Foxtail, Giant [13]: 100
- Foxtail, Giant plant response rating ([13]; 31 g ai/ha, visual rating): 70
- Foxtail, Giant plant response rating ([13]; 62 g ai/ha): 95
- Plant response rating, Foxtail, Giant [13]: 100
- Plant response rating (scale of 0 to 100), Nutsedge, Yellow [14]: 75
- Nutsedge, Yellow plant response rating ([14]; 31 g ai/ha, visual rating): 25
- Nutsedge, Yellow plant response rating ([14]; 62 g ai/ha): 65
- Plant response rating, Nutsedge, Yellow [14]: 75
- Plant response rating (scale of 0 to 100), Oilseed Rape [15]: 100
- Oilseed Rape plant response rating ([15]; 31 g ai/ha, visual rating): 75
- Oilseed Rape plant response rating ([15]; 62 g ai/ha): 98
- Plant response rating, Oilseed Rape [15]: 98

SMILES: CCCNC(=O)c1cc(CC)n(Cc2ccnc(OC(F)F)c2)n1 [Compound 132]
- Foxtail, Giant plant response rating [1, 16]: 100
- Foxtail, Giant plant response rating [1, 17]: 100
- Morningglory plant response rating [2, 16]: 100
- Morningglory plant response rating [2, 17]: 100
- Velvetleaf plant response rating [3, 16]: 100
- Velvetleaf plant response rating [3, 17]: 100
- Corn plant response rating [4, 16]: 40
- Corn plant response rating [4, 17]: 80
- Crabgrass, Large plant response rating [5, 18]: 90
- Crabgrass, Large plant response rating [5, 19]: 90
- Pigweed plant response rating [6, 18]: 100
- Pigweed plant response rating [6, 19]: 90
- Wheat plant response rating [7, 18]: 90
- Wheat plant response rating [7, 19]: 80
- Plant response rating, Sedge, Umbrella [8]: 90
- Plant response rating, Ducksalad [9]: 100
- Plant response rating (scale of 0 to 100), Wheat [10]: 95
- Wheat plant response rating ([10]; 31 g ai/ha, visual rating): 15
- Wheat plant response rating ([10]; 62 g ai/ha): 15
- Plant response rating, Wheat [10]: 70
- Plant response rating (scale of 0 to 100), Galium [11]: 100
- Galium plant response rating ([11]; 31 g ai/ha, visual rating): 98
- Galium plant response rating ([11]; 62 g ai/ha): 100
- Plant response rating, Galium [11]: 100
- Plant response rating (scale of 0 to 100), Corn [12]: 95
- Corn plant response rating ([12]; 31 g ai/ha, visual rating): 55
- Corn plant response rating ([12]; 62 g ai/ha): 25
- Plant response rating, Corn [12]: 95
- Plant response rating (scale of 0 to 100), Foxtail, Giant [13]: 100
- Foxtail, Giant plant response rating ([13]; 31 g ai/ha, visual rating): 95
- Foxtail, Giant plant response rating ([13]; 62 g ai/ha): 100
- Plant response rating, Foxtail, Giant [13]: 100
- Plant response rating (scale of 0 to 100), Nutsedge, Yellow [14]: 70
- Nutsedge, Yellow plant response rating ([14]; 31 g ai/ha, visual rating): 35
- Nutsedge, Yellow plant response rating ([14]; 62 g ai/ha): 55
- Plant response rating, Nutsedge, Yellow [14]: 80
- Plant response rating (scale of 0 to 100), Oilseed Rape [15]: 100
- Oilseed Rape plant response rating ([15]; 31 g ai/ha, visual rating): 75
- Oilseed Rape plant response rating ([15]; 62 g ai/ha): 98
- Plant response rating, Oilseed Rape [15]: 100
